Source: patent US20250263441A1 (Metanovas Biotech Inc., priority 2024, published 2025)

System: Propionibacterium acnes
Assay: Minimum inhibitory concentration on Propionibacterium acnes (liquid culture)
Type: cell-based
Details: anaerobic, 37° C., 24 to 48 hours
Procedure: Primary screening of liquid culture: the peptides in Examples 1 to 2 were dissolved in pure water to a concentration of 100 μg/mL. Using a micropipette, 10 μL of the peptides were added to a new 96-well plate in order from left to right, starting from the second compartment. Positive and negative controls were established for use. The 96-well plates were arranged vertically, and the peptide concentrations in the control groups were the same as those of the antimicrobial peptides. The control groups included: pure water and bacteria, antimicrobial peptide FK13 and bacteria, antimicrobial peptide HPA3NT3 and bacteria, and ciprofloxacin and bacteria. An aseptic medium was used.
If a 96-deep-well plate was used to culture bacteria, an additional 100 μL of sterile medium was added to all wells.
Propionibacterium acnes was inoculated on an anaerobic blood agar plate, placed in an anaerobic bag, and incubated anaerobically at 37° C. for 48 hours. Propionibacterium acnes clones were then picked and incubated anaerobically in liquid anaerobic broth medium at 37° C. for an additional 48 hours. The bacterial concentration was measured and diluted to 107 CFU/mL with culture medium.
The prepared fresh bacterial suspension was diluted to 105 CFU/mL and added to the 96-well plate with 90 μL of the bacterial suspension per well. The plate was incubated at 37° C. with a normal oxygen concentration for 24 to 48 hours (Propionibacterium acnes was cultured anaerobically at 37° C. for 24 to 48 hours in an anaerobic bag). The absorbance at 630 nm was measured using a microplate reader, and the degree of turbidity was observed by the naked eye.
(iv) Repetition of Operations: The Operations in (iii) were Repeated Twice, and the Decision to Perform a Third Repetition was Based on the Reproducibility of the Experiment.

Substance: Example 2: LSKWLKKLGKLLAG (designated as AMP33)
- Minimum inhibitory concentration on Propionibacterium acnes: 4 µg/mL
